# Results published in US20130096166A1 (Clark Atlanta University, priority 2011, published 2013).
# Legend:
# [1] = system: C4-2 cells; assay: Detection of reactive oxygen species (H2DCFDA oxidation); assay type: cell-based, human
# Description: (§1) Cells were plated at a density of 1×10^4 cells well in 96-well black clear bottom plates and left to attach overnight. Baseline ROS levels were assessed in untreated ARCaP Neo, […], and C4-2 cells. Prior to treatment, […] C4-2 cells were starved in serum-free and phenol red free RPMI. […] Procedures were performed following manufacturer's protocol (Molecular Probes®, Invitrogen) with slight modifications. Briefly, cells were loaded with 10 μM (final working concentration) of H2DCFDA in pre-warmed Hanks Balance Salt solution (HBSS) for 45 minutes. This was replaced with experimental media with various treatments as well as untreated controls, for 3 days. H2DCFDA oxidation was measured on a spectrofluorometer (BIOTek Synergy HT, BIOTeK Instruments Inc., Vt.) with excitation […] and emission 528 nm at desired increments.
# [2] = Cell viability assay (CellTiter 96 AQueous One, MTS); assay type: cell-based, human; details: human, ARCaP Neo cells, 3 days, 50 μM H2O2, read-out: decrease in cell viability
# Description: (§2) PrEC, ARCaP Neo, ARCaP Snail, LNCaP, and C4-2 cells were plated at a density of 2,000 cells per well in 96-well plates and allowed to attach overnight.
# [3] = system: cleaved PARP; assay: Western blot analysis of cleaved PARP protein expression; assay type: cell-based, human; details: for effect on camalexin-mediated PARP cleavage: H2O2 with camalexin
# [4] = system: caspase-3/7 activity in ARCaP Snail cells; assay: FACS analysis of caspase-3/7 activity (Dual Sensor Mitocasp assay); assay type: cell-based, human; details: 3 days
# Description: Caspases are generally accepted as the executioners of apoptosis. […] Stained cells were evaluated in an Accuri® C6 Flow Cytometer (Accuri Cytometers Inc., Ann Arbor, Mich.) and analyzed using FlowJo software.
# [5] = system: ARCaP Snail cells; assay: Detection of reactive oxygen species (H2DCFDA oxidation); assay type: cell-based, human
# Description: as §1
# [6] = system: Trypanosoma cruzi; details: cited from earlier work
# [7] = system: Jurkat T-leukemia cells; details: by increasing ROS and activation of caspases; cited from earlier work
# [8] = system: C4-2 cells; assay: Cell viability assay (CellTiter 96 AQueous One, MTS); assay type: cell-based, human
# Description: as §2
# [9] = system: ARCaP Neo cells; assay: as above; assay type: cell-based, human
# Description: as §2
# [10] = system: ARCaP Snail cells; assay: as above; assay type: cell-based, human
# Description: as §2
# [11] = system: LNCaP cells; assay: as above; assay type: cell-based, human
# Description: as §2
# [12] = system: caspase-3; assay: Western blot analysis of total caspase-3 protein expression; assay type: cell-based, human
# [13] = system: Snail; assay: Western blot analysis of Snail protein expression; assay type: cell-based, human; details: 3 days
# [14] = ARCaP Neo cells, 10, 25 and 50 μM
# [15] = 10 mM NAC added to 25 or 50 μM camalexin
smiles,measurement,setting,value
"OO [H2O2, Hydrogen peroxide, reference compound]",ROS in cells,[1]; 100 μM H2O2 positive control,significantly increased ROS
same,"cytotoxicity at 3 days, 50 μM",[2],~50%
same,effect on camalexin-mediated PARP cleavage,[3]; ARCaP Neo cells,potentiated camalexin-mediated PARP cleavage
same,effect on camalexin-mediated PARP cleavage,[3]; LNCaP cells,potentiated camalexin-mediated PARP cleavage
"c1ccc2c(-c3nccs3)c[nH]c2c1 [camalexin, 3-thiazol-2′yl-indole]",fraction of cells with increased caspase-3/7 activity,"[4]; 25 μM camalexin, untreated control 21.7%",34.2%
same,"ROS, of untreated controls",[1]; 25 μM camalexin,approximately 130±5%
same,"ROS, of untreated controls",[1]; 50 μM camalexin,~150±5%
same,"ROS, as compared to untreated controls",[5]; 25 μM camalexin,approximately 210%
same,"ROS, as compared to untreated controls",[5]; 50 μM camalexin,~350±25%
same,cytostatic/cytotoxic effects,[6],cytostatic/cytotoxic effects
same,apoptosis,[7],induced apoptosis
same,cell viability,"[8]; C4-2, day 0",viability was unaffected
same,decrease in cell viability,"[8]; C4-2, day 3, 10 μM",approximately 40±5%
same,decrease in cell viability,"[8]; C4-2, day 3, 25 μM",approximately 40±5%
same,decrease in cell viability,"[8]; C4-2, day 3, 50 μM",approximately 40±5%
same,cell viability,[9]; day 0,no change in viability
same,cell viability,"[9]; day 3, 10, 25 and 50 μM",remained unaffected
same,cell viability,[10]; day 0,no change in viability
same,decrease in cell viability,"[10]; day 3, 10 μM",approximately 25%
same,decrease in cell viability,"[10]; day 3, 25 μM",~35%
same,decrease in cell viability,"[10]; day 3, 50 μM",~35%
same,cell viability,[11]; day 0,viability was unaffected
same,decrease in cell viability,"[11]; day 3, 50 μM",approximately 40±2%
same,total caspase-3 protein levels,"[12]; ARCaP Neo cells, 3 days",not in the less aggressive ARCaP Neo or LNCaP cells
same,total caspase-3 protein levels,"[12]; ARCaP Snail cells, 3 days (p<0.01 at 50 μM)",induced an increase in total caspase-3 protein levels
same,total caspase-3 protein levels,"[12]; C4-2 cells, 3 days",induced an increase in total caspase-3 protein levels
same,total caspase-3 protein levels,"[12]; LNCaP cells, 10 μM, 3 days",significant decrease in protein expression
same,total caspase-3 protein levels,"[12]; LNCaP cells, 3 days",not in the less aggressive ARCaP Neo or LNCaP cells
same,cleaved PARP protein expression,[3]; [14],very low levels of cleaved PARP protein expression
same,cleaved PARP protein expression,"[3]; ARCaP Snail cells, 10, 25 and 50 μM vs untreated control",marked increase in levels of cleaved PARP protein expression
same,PARP protein cleavage,"[3]; C4-2 cells, all 3 camalexin treatments, vs LNCaP cells",marked increase in PARP protein cleavage
same,Snail protein expression,[13]; [14],no detectable levels of Snail protein expression
same,Snail protein expression,"[13]; ARCaP Snail cells, 10, 25 and 50 μM",not affected by camalexin treatments
same,Snail protein expression,"[13]; C4-2 cells, 10, 25 and 50 μM",did not affect Snail expression
same,Snail protein expression,"[13]; LNCaP cells, 10 μM",moderate expressing band for Snail protein
"CC(=O)N[C@@H](CS)C(=O)O [NAC, N-acetyl cysteine, reference compound]",effect on camalexin-induced increase in caspase-3/7 activity,[4]; 25 μM camalexin plus 10 mM NAC,abrogated the percent increase in caspase-3/7 activity
same,effect on camalexin-mediated ROS,[1]; [15],significantly decreased camalexin-mediated ROS
same,effect on camalexin-mediated ROS,[5]; [15],abrogated by NAC
same,increased viability vs. 25 μM camalexin-only treatment,"[10]; 3 days, 25 μM camalexin with 10 mM NAC, not statistically significant",approximately 15%
same,effect on camalexin-increased cleaved PARP protein expression,"[3]; ARCaP Snail cells, co-treatment with NAC",could be inhibited by co-treatment with NAC
